From paper PMC3813382 (The Journal of General Physiology, 2013)
Numbering of substitutions follows the chain as printed.

How the values were obtained:
F240C Slo2.1 channels = target: T1, F240C Slo2.1 channels (Homo sapiens, UniProt Q6UVM3, F240C); assay: Activation of ISlo2.1 by NFA, two-electrode voltage clamp in oocytes; format: cell-based
T1 sequence (Q6UVM3 1-1135 F240C): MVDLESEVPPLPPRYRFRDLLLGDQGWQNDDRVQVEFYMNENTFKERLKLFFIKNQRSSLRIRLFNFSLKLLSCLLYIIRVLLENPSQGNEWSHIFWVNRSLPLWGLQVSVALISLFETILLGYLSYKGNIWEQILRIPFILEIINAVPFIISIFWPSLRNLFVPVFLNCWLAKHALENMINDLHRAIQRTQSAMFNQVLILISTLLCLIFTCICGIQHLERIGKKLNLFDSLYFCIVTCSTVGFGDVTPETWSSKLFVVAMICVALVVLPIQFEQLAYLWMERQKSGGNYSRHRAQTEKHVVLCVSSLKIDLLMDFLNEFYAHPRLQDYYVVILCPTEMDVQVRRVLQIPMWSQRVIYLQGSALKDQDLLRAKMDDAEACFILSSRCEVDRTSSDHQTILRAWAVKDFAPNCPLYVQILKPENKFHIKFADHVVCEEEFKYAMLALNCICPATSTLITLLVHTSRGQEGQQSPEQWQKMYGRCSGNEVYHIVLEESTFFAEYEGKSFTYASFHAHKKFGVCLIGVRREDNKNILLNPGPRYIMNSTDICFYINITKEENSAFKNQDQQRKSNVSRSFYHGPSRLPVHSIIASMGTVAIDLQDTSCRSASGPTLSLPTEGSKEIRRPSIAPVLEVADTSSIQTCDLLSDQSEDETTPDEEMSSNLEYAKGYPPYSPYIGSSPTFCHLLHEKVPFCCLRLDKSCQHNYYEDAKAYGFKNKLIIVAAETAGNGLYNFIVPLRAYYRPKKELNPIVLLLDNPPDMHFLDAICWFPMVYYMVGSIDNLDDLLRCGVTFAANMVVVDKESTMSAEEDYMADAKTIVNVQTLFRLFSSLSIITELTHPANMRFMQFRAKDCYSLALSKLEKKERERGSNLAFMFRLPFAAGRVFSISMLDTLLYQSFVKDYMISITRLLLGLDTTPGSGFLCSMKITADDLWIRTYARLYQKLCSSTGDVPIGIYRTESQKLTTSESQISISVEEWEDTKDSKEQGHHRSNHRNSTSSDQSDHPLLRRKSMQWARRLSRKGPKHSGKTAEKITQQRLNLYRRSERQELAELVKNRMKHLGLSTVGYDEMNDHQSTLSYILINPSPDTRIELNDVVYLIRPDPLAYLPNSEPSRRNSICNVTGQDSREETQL

M262A Slo2.1 channels = target: T2, M262A Slo2.1 channels (Homo sapiens, UniProt Q6UVM3, M262A); assay: as above; format: cell-based
T2 sequence (Q6UVM3 1-1135 M262A): T1 sequence (Q6UVM3 1-1135 F240C) with C240F, M262A

activation of F240C currents by NFA (F240C Slo2.1 channels; KCM211 solution ([K^+]e 2 mM)): not further activated by NFA
activation of F240C currents by NFA (F240C Slo2.1 channels; [K^+]e elevated to 104 mM, 1 mM NFA): further activated by 1 mM NFA
EC50 (M262A Slo2.1 channels): 660 ± 130 µM
Hill coefficient nH of NFA activation (M262A Slo2.1 channels; M262A): 1.4 ± 0.06
SMILES: O=C(O)c1cccnc1Nc1cccc(C(F)(F)F)c1 [NFA, niflumic acid]
